In patent US20100305124A1, “Acylated Aminopyridine and Aminopyridazine Insecticides” (BAYER CROPSCIENCE AG, priority 2009, published 2010) one finds pest or weed control data, which are given here for 60 compounds.

One assay deals with green peach aphid (Myzus persicae). Briefly: Myzus test (MYZUPE), sprayed aubergine plants. In kind it is in vivo. As to conditions: application rate of 100 ppm, spray on aubergine plants, read-out: effect in % (aphids killed). How it is done:
Solvent: 3 parts by weight of dimethylformamide Emulsifier: 1 part by weight of polyoxyethylenealkyl phenyl ether
An appropriate preparation of active ingredient is prepared by mixing 1 part by weight of active ingredient with the stated amount of solvent and emulsifier and diluting the concentrate with water to the desired concentration.
Aubergine plants (Solanum melongena) infested by all stages of the green peach aphid (Myzus persicae) are sprayed with a preparation of active ingredient at the desired concentration.
After the desired time, the effect in % is determined; here, 100% means that all of the aphids have been killed. Conversely, 0% means that no aphids have been killed.
With `CN(C(=O)c1ccc(Oc2ccc(OC(F)(F)F)cc2)nc1)c1cccnc1` [I-95], the pest or weed control at 100 ppm was no less than 80%.

Staying with this assay, now noted: application rate of 500 ppm, spray on aubergine plants, read-out: effect in % (aphids killed).
Turning to `CCN(C(=O)c1ccc(Oc2nc(OC)cc(OC)n2)cc1)c1cccnc1` [I-172], the pest or weed control at 500 ppm was no less than 80%.
Still for that read-out and setting: the value for `COc1nc(OC)nc(Sc2ccc(C(=O)N(C)c3cccnc3)cn2)n1` [I-200] was no less than 80%.
On to `CN(C(=O)c1ccc(Oc2cc(C(F)(F)F)cc(C(F)(F)F)c2)nc1)c1cccnc1` [I-124], for which the pest or weed control at 500 ppm was no less than 80%.
Still for that read-out and setting: as for `Cc1ccnc(Sc2ccc(C(=O)Nc3cccnc3)cn2)n1` [I-195], the figure is no less than 80%.
On to `COc1cc(OC)nc(Sc2ccc(C(=O)Nc3cccnc3)cc2)n1` [I-176], for which the pest or weed control at 500 ppm was no less than 80%.
For `O=C(Nc1cccnc1)c1ccc(Oc2cccc(Cl)c2)nc1` [I-83, 6-(3-Chlorophenoxy)-N-pyridin-3-ylnicotinamide], the pest or weed control at 500 ppm is no less than 80%.
On the same count and under the same terms, the value for `CN(C(=O)c1ccc(Oc2ccc(-n3cncn3)cc2)nc1)c1cccnc1` [I-128] was no less than 80%; that for `CC(C(=O)c1ccc(Oc2cccc3ncccc23)nc1)c1cccnc1` (stereo not drawn) [I-142] was no less than 80%.
On the same count and under the same terms, the value for `Cc1cc(C)nc(Sc2ccc(C(=O)Nc3cccnc3)cc2)n1` [I-179] was no less than 80%; that for `CN(C(=O)c1ccc(Cn2cccn2)cc1)c1cccnc1` [I-23] was no less than 80%; that for `C=CCN(C(=O)c1ccc(Oc2ccc(OC(F)(F)F)cc2)nc1)c1cccnc1` [I-134] was no less than 80%.
Still for that read-out and setting: as for `CC(=O)N(C)c1ccc(C(=O)N(C)c2cccnc2)cc1` [I-253], the figure is no less than 80%.
`CSc1ccc(C(=O)N(C)c2cccnc2)cc1` [I-53]: the pest or weed control at 500 ppm was no less than 80%.
On the same count and under the same terms, the value for `CCSc1ccc(C(=O)Nc2cccnc2)cc1` [I-55] was no less than 80%; that for `CC(C)O/N=C/c1ccc(C(=O)N(C)c2cccnc2)cc1` [I-234] was no less than 80%; that for `CSCc1ccc(C(=O)Nc2cccnc2)cc1` [I-32] was no less than 80%.
Turning to `CN(C(=O)c1ccc(Oc2ccc(Cl)cc2Cl)nc1)c1cccnc1` [I-114], the pest or weed control at 500 ppm was no less than 80%.
As for `CCN(C(=O)c1ccc(Cl)nc1)c1cccnc1` [I-191], the pest or weed control at 500 ppm is no less than 80%.
`CCN(C(=O)c1ccc(Oc2ccc(-n3cncn3)cc2)nc1)c1cccnc1` [I-219]: the pest or weed control at 500 ppm is no less than 80%.
The same measure, in the same setting: the value for `CN(C(=O)c1cnc(Oc2ccc(OC(F)(F)F)cc2)c(Cl)c1)c1cccnc1` [I-147] was no less than 80%.
Still for that read-out and setting: as for `Cc1cc(C)nc(Sc2ccc(C(=O)N(C)c3cccnc3)cn2)n1` [I-104], the figure is no less than 80%.
Same read-out and setting: as for `Cc1ccnc(Sc2ccc(C(=O)N(C)c3cccnc3)cn2)n1` [I-137], the figure is no less than 80%; as for `O=C(Nc1cccnc1)c1ccc(Cn2nc(C(F)(F)F)nc2C(F)(F)F)nc1` [I-6], no less than 80%.
In the case of `CCOc1ccc(C(=O)N(C)c2cccnc2)cn1` [I-156], the pest or weed control at 500 ppm is no less than 80%.
Still for that read-out and setting: the value for `CCN(C(=O)c1ccc(Sc2nc(C)cc(C)n2)cc1)c1cccnc1` [I-180] was no less than 80%; that for `Cc1cc(C)nc(Oc2ccc(C(=O)N(C)c3cccnc3)cc2)n1` [I-182] was no less than 80%.
Still for that read-out and setting: as for `CSCc1cccc(C(=O)Nc2cccnc2)c1` [I-16], the figure is no less than 80%; as for `CN(C(=O)c1ccc(Cn2cncn2)cc1)c1cccnc1` [I-22], no less than 80%; as for `COC(=O)c1cncc(Oc2ccc(C(=O)Nc3cccnc3)cn2)c1` [I-89], no less than 80%.
The same measure, in the same setting: as for `CCSc1ccc(C(=O)N(C)c2cccnc2)cc1` [I-56], the figure is no less than 80%.
As to `CN(C(=O)c1ccc(Sc2ccc(C(F)(F)F)cc2)nc1)c1cccnc1` [I-118], the pest or weed control at 500 ppm was no less than 80%.
Consider `Cc1ccc(Oc2ccc(C(=O)N(C)c3cccnc3)cn2)cn1` [I-80], for which the pest or weed control at 500 ppm was no less than 80%.
Still for that read-out and setting: as for `CN(C(=O)c1ccc(Oc2cccc(C#N)c2)nc1)c1cccnc1` [I-112], the figure is no less than 80%; as for `COc1cc(OC)nc(Oc2ccc(C(=O)N(C)c3cccnc3)cc2)n1` [I-171], no less than 80%; as for `CN(C(=O)c1ccc(Oc2ccc(C#N)cc2)nc1)c1cccnc1` [I-90], no less than 80%.
For `O=C(Nc1cccnc1)c1ccc(Cn2nc(C(F)(F)F)nc2C(F)(F)F)c(Cl)c1` [I-18], the pest or weed control at 500 ppm is no less than 80%.
Still for that read-out and setting: as for `CCN(C(=O)c1ccc(N(C)C(C)=O)cc1)c1cccnc1` [I-254], the figure is no less than 80%; as for `CN(C(=O)c1ccc(N(C)C(=O)C(F)(F)Cl)cc1)c1cccnc1` [I-245], no less than 80%.
On the same count and under the same terms, the value for `CCN(C)C(=O)c1cccc(C(=O)Nc2cccnc2)c1` [I-71] was no less than 80%; that for `COc1ccc(Oc2ccc(C(=O)Nc3cccnc3)cn2)cc1` [I-81] was no less than 80%; that for `CN(C(=O)c1ccc(Sc2ccc(C(F)(F)F)cn2)nc1)c1cccnc1` [I-119] was no less than 80%.
Same read-out and setting: as for `CCN(CC)C(=O)c1ccc(C(=O)N(CC)c2cccnc2)cc1` [I-251], the figure is no less than 80%; as for `COc1ccc(C(=O)N(C)c2cccnc2)cn1` [I-155], no less than 80%; as for `CN(C(=O)c1ccc(Oc2ccc(OC(F)(F)F)cc2)nc1)c1cccnc1` [I-116], no less than 80%.
Take `CC(=O)N(Cc1ccc(C(=O)N(C)c2cccnc2)cc1)CC(C)C` [I-238]: the pest or weed control at 500 ppm was no less than 80%.
Turning to `CCN(CC)C(=O)c1ccc(C(=O)Nc2cccnc2)cc1` [I-250], the pest or weed control at 500 ppm is no less than 80%.
Still for that read-out and setting: the value for `CCN(C(=O)c1ccc(Sc2nc(C)c(C)c(C)n2)nc1)c1cccnc1` [I-220] was no less than 80%; that for `CCN(C(=O)c1ccc(/C=N/OC(C)C)cc1)c1cccnc1` [I-236] was no less than 80%.
Take `N#Cc1ccc(Oc2ccc(C(=O)Nc3cccnc3)cn2)cc1` [I-164]: the pest or weed control at 500 ppm was no less than 80%.
Still for that read-out and setting: as for `CC(=O)N(C)c1ccc(C(=O)Nc2cccnc2)cc1` [I-252], the figure is no less than 80%; as for `CCN(C(=O)c1ccc(Oc2ccc(S(C)(=O)=O)cc2)nc1)c1cccnc1` [I-154], no less than 80%; as for `CSc1ccc(C(=O)N(C)c2cccnc2)cc1F` [I-66], no less than 80%.
Regarding `Cc1cccc(Oc2ccc(C(=O)N(C)c3cccnc3)cn2)c1` [I-97], the pest or weed control at 500 ppm is no less than 80%.
On the same count and under the same terms, the value for `COc1cc(OC)nc(COc2cccc(C(=O)N(C)c3cccnc3)c2)n1` [I-207] was no less than 80%.
Same read-out and setting: as for `CN(C(=O)c1cccc(Cn2nc(C(F)(F)F)cc2C(F)(F)F)c1)c1cccnc1` [I-13], the figure is no less than 80%; as for `CCCN(C(=O)c1ccc(Oc2ccc(OC(F)(F)F)cc2)nc1)c1cccnc1` [I-133], no less than 80%; as for `Cc1nc(Sc2ncc(C(=O)N(C)c3cccnc3)cc2Cl)nc(C)c1C` [I-167], no less than 80%.

Staying with this assay, now noted: read-out: effect in % (aphids killed).
As for `O=C(Nc1cccnc1)c1ccc(C(F)(F)C(F)(F)C(F)(F)F)nc1` [I-30], the pest or weed control at 500 ppm is no less than 80%.
Take `CN(C(=O)c1ccc(C(F)(F)C(F)(F)C(F)(F)F)nc1)c1cccnc1` [I-48]: the pest or weed control at 500 ppm is no less than 80%.
